We go through 3 compounds from ChEMBL document CHEMBL4330157, “Lycopodium Alkaloids: Lycoplatyrine A, an Unusual Lycodine-Piperidine Adduct from Lycopodium platyrhizoma and the Absolute Configurations of Lycoplanine D and Lycogladine H” (J Nat Prod, 2019).

A word on the pIC50: it is the IC50 on a negative log10 scale, so that one unit is a factor of ten. A high value points to a small IC50.

pIC50: −log10 of the molar value.

This experiment concerns the target Acetylcholinesterase (Homo sapiens, UniProt P22303). In words: Inhibition of AChE (unknown origin) using acetylthiocholine as substrate preincubated for 15 mins followed by substrate addition measured every minute for 15 mins by Ellman's method. Background: DTNB colorimetry detects thiols as they appear.

Acetylcholinesterase, sequence (P22303 whole entry): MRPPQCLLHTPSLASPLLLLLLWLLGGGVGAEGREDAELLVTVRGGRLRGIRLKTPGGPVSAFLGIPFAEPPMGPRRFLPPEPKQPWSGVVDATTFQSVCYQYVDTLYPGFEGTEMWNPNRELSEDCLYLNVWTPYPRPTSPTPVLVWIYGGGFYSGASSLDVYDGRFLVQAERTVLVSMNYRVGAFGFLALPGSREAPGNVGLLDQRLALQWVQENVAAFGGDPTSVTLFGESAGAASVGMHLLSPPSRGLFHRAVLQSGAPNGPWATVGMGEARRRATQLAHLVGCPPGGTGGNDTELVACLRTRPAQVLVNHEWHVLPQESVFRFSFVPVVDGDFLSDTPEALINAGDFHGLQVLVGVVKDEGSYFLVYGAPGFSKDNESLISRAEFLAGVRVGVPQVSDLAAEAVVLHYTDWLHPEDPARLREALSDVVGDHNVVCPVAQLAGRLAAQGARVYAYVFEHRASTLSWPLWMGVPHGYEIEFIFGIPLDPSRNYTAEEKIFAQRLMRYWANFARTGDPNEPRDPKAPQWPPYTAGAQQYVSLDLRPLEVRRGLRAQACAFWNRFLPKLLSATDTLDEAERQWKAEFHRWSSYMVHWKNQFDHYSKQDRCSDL

For the compound `CC1C[C@H]2[C@H](O)[C@@H]3O[C@]4(C1)OC1CCN5CCCC24[C@]13C5` (stereo partly drawn), the pIC50 is under 4.52.
The same measure for `C[C@@H]1C[C@H]2Cc3ncc(C4CCCCN4)cc3[C@]3(C1)NCCC[C@H]23` (stereo partly drawn): under 4.52; for `C=C[C@@H]1[C@@H]2CC3=C(CCC(=O)N3)[C@@]1(N)C[C@H](C)C2`: under 4.52.
